What was measured:
S. aureus Xen29 [1] = assay: PET imaging of infective endocarditis rat model; format: in vivo, Sprague-Dawley rats; conditions: day-3 post infection, 60 min and 120 min post tracer injection
Source text: Female Sprague-Dawley rats (weight, ˜200 g, Charles River) were maintained in an anesthetized state with an isofluorane-oxygen gas mixture during surgery. A sterile polyethylene catheter was placed and positioned in the left ventricle through a small incision via the retrograde transcarotid artery approach.
The catheter was left in place throughout the experiments. At 24-hour post-catheterization, the rats were infected intravenously through the tail vein with an inoculum of S. aureus Xen29 of 10^6 CFU in 0.5 mL sterile saline. The animals were imaged for bioluminescence signal in the region of the hearts with IVIS daily after infection. The optimal BLI signal over the heart area was determined to be day-3 post inoculation (FIG. 15A and FIG. 16A).

[2] = In vivo metabolite analysis in blood and urine of healthy rats (radio-HPLC); parameters: species or system Sprague-Dawley rats
Experimental: FIG. 7. Analysis of metabolites in the plasma and urine of healthy rats after intravenous injection (IV) of 2-[^18F]F-ENB. After IV administration of 2-[^18F]F-ENB, the animals were sacrificed at each time point (n=3 rats) and the blood and urine samples were collected for radio-HPLC analysis. […] The percent of each metabolite in blood (B) and urine (C) is shown.
2-[^18F]F-ENB (1 mCi) was injected via the tail vein into healthy female Sprague-Dawley rats (10 weeks old, Charles River). […] The mixture was centrifuged at 13 400 rpm for 5 min to remove the protein, and the supernatant and protein pellet were analyzed by gamma counter to determine the efficiency of extraction. […] The radioactive fractions corresponding to each cold standard were collected and analyzed using a gamma counter from which the percentage of each metabolite was calculated (n=3).
Analysis of the radioactive metabolites in the urine was performed using a similar procedure from samples obtained from the bladder 30 and 60 min after tracer injection. The urine was diluted with 45% MeCN/H2O, centrifuged at 13 400 rpm for 5 min and spiked with cold standards for radio-HPLC analysis.

S. aureus Xen29 [3] = assay: PET/CT imaging of rat triceps infection / sterile inflammation model (S. aureus Xen29); format: in vivo, Sprague-Dawley rats; conditions: 180 min post tracer injection
Experimental: FIG. 5. PET/CT imaging of rats infected in the right triceps with the bioluminescent Xen29 strain of S. aureus. (A) Experimental design. (B) 2-[^18F]F-ENB-derived radioactivity accumulates in the infected triceps (red arrow) but not the inflamed triceps (yellow arrow) at 3 h post tracer administration.
FIG. 8. PET/CT imaging of 2-[^18F]F-NB in a rat model of S. aureus Xen29 infection. (A) Radiosynthesis of 2-[^18F]F-NB. (i) [^18F]potassium fluoride, Kryptofix222, potassium carbonate, dimethyl sulfoxide, r.t., 10 min; (ii) 2 M potassium hydroxide in H2O, 105° C., 10 min; Overall decay-corrected radiochemical yield: 26% (n=1).
FIG. 10. Time activity curve (TAC) in infected triceps, inflamed triceps and blood and biodistribution of 2-[^18F]F-NB in major organs. (a) The right triceps of the rats were infected with S. aureus Xen 29 and the left triceps were injected with a 10-fold higher burden of heat-killed S. aureus to induce sterile inflammation. The rats were scanned by PET/CT for 120 min (rats with sterile inflammation in the left triceps) immediately starting from tracer administration. The PET scan was separated into ten frames (1-min) and twenty-two frames (5-min). TACs of infected triceps (blue), inflamed triceps (grey) and blood (left heart ventricle, red) are shown. Data represented as mean with standard error of the mean (n=4). (b) Time-dependent accumulation of 2-[^18F]F-NB in infected and inflamed triceps compared to the blood (left heart ventricle). Data are presented as the mean and standard error of the mean (n=4). […]
S. aureus (Newman or Xen29) was cultured overnight by inoculating 5 μL of bacteria from a glycerol stock into 10 mL of fresh cation-adjusted Mueller-Hinton (CAMH) broth or tryptic soy broth (TSB). […] After imaging, the infected triceps were collected, homogenized in PBS using a hand-held homogenizer, and the bacterial burden at the time of imaging was determined by plating the muscle tissues onto solid MH medium. After overnight incubation at 37° C., CFUs were quantified by enumeration. […]

S. aureus Xen36 = assay: PET imaging of prosthetic joint infection (PJI) mouse model; format: in vivo, Balb/c mice; conditions: day-2 post infection, 60 min and 120 min post tracer injection
Experimental: Balb/c mice was anesthetized by inhalation of a mixture of isofluorane and oxygen. A medical-grade stainless steel Kirschner wire was inserted into the distal part of the femur which has been exposed by dislocation of the patella and reamed with a 25-gauge needle. 2 μL of S. aureus Xen36 (4 log 10 CFU) will be inoculated into the knee joint and onto the wire before the surgical incision is closed with absorbable sutures. The correct position of the wire in the canal was performed with X-ray scan. The animals were imaged for bioluminescence signal in the region of the surgical joint with IVIS daily after infection. The optimal BLI signal over the joint area was determined to be day-2 post inoculation (FIG. 20A).

[4] = format: in vitro ADME, Sprague-Dawley rat; conditions: rat serum, 85 min incubation
Experimental: FIG. 6. In vitro metabolic stability of 2-[^18F]F-ENB in rat and human plasma. (a-d) HPLC traces of metabolites of 2-[^18F]F-ENB incubated with rat plasma at different time points (2 min, 10 min, 30 min, 85 min) and spiked with cold standards.
2-[^18F]F-ENB (600 μCi) was incubated with Sprague-Dawley rat plasma (5.0 mL) at 37° C. Subsequently, 0.4 mL aliquots of the plasma were taken 2, 10, 30, and 85 min after addition of the tracer, and 0.6 mL of MeCN was added to quench the metabolism. The mixture was centrifuged at 13 400 rpm for 10 min to remove proteins, and both the supernatant and the protein pellet were analyzed by gamma counting to calculate the extraction efficiency. […] The radioactive fractions corresponding to each cold standard were collected and radioactivity was quantified using a gamma counter from which the percentage of each metabolite was calculated.

For `CCOC(=O)c1ccc([N+](=O)[O-])cc1[18F]` [2-[^18F]F-ENB, Ethyl 2-[^18F]F-4-nitrobenzoate], the “PET signal over the heart region” value (S. aureus Xen29 [1]) was “a robust radioactive signal was detected over the heart region”, the “radioactive components in blood after IV administration” value ([2]; blood at 5, 30 and 60 min) was 2-[^18F]F-NB was the predominant radioactive component at each time point and the “radioactive components in urine after IV administration” value ([2]; urine at 30 and 60 min post injection) was “the majority of the radioactive signal could be attributed to 2-[^18F]F-NB”. For the same compound, the “localisation of radioactive signal” value (S. aureus Xen29 [3]) was “predominantly observed in the infected triceps”, the “PET signal over the joint region” value (S. aureus Xen36) was “a robust radioactive signal was detected over the joint region” and the “stability of the nitro group” value [4] was “the nitro group was unaffected”.

Source: patent US20230226228A1, “POSITRON IMAGING TOMOGRAPHY IMAGING AGENT COMPOSITION AND METHOD FOR DETECTION OF BACTERIAL INFECTION” (priority 2020, published 2023)
